One assay concerns the target T1, human FAAH (hFAAH) (Homo sapiens, UniProt O00519).
T1 construct: purchased Cayman Item # 10005196
T1 sequence (O00519 1-579): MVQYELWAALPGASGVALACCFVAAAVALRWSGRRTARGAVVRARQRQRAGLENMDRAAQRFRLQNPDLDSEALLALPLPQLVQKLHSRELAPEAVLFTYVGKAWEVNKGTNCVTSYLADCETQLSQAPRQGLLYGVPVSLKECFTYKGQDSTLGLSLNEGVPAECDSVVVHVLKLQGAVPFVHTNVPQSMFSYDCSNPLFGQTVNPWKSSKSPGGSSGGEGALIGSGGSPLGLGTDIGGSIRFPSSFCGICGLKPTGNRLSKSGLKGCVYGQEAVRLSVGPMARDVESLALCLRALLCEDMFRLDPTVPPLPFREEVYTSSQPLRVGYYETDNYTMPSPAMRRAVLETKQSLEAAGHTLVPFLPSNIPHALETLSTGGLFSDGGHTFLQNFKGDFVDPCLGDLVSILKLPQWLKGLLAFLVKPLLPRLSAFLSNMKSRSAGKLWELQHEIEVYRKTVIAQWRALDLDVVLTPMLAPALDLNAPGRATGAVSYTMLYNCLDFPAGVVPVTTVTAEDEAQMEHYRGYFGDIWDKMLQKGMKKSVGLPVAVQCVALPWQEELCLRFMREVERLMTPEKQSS
Put plainly: FAAH enzyme inhibition assay (Cayman inhibitor screening kit, AMC-arachidonoyl amide, fluorescence). Format: biochemical. Conditions: for FAAH inhibitory activity (in words): in vitro, up to 100 μM. The method, then:
The manufacturer’s protocol was followed to perform the assay. […] AMC-Arachidonoyl amide, at a concentration of 400 μM, was then used as the FAAH substrate. The samples were mixed for 30 s and incubated at 37 °C for 30 min.

Another assay has as its target T2, human MAGL (hMAGL) (Homo sapiens, UniProt Q99685).
T2 construct: purchased Reaction Biology Corp
T2 sequence (Q99685 1-303): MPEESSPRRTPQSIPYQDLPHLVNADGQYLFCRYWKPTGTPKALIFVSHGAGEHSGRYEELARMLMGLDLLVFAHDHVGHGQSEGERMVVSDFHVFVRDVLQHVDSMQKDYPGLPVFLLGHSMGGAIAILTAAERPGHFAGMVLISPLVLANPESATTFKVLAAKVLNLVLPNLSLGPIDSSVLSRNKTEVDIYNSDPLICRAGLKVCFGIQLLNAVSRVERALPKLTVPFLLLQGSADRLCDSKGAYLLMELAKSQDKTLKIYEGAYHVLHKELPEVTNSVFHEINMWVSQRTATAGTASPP
Put plainly: MAGL enzyme inhibition assay (4-nitrophenylacetate hydrolysis, absorbance 405 nm). As to IC50 (µM) ± SE (hMAGL): 250 µM 4-nitrophenylacetate. Format: biochemical. Particulars: for decrease of MAGL inhibitory activity: relative to the parent compound as worded in the text (disulfiram for 2c, 2d; para substitution of 2h for 2k); for MAGL inhibitory activity (in words): in vitro. The method, then: All of the tested compounds were prepared as 10 mM stock solutions in DMSO. […] The plate was mixed for 30 s and incubated at room temperature for 30 min.

The mark [1] stands for this setting: 10-dose IC50 mode, 3-fold serial dilution, top 100 μM (JZL195 5 μM), 400 μM AMC-arachidonoyl amide, 37 °C 30 min, average of at least two experiments ± SE.
The mark [2] stands for this setting: read-out: IC50 (µM) ± SE (hMAGL).
Setting [3] is: read-out: IC50 (µM) ± SE (hFAAH).

Where “and” joins values, the source holds several entries; their conditions need not be identical. Equal entries are not always repeated. Entries after “also recorded” stand apart in the source; their conditions may differ. Where two headings read alike, the source gives them in different places. A value given as a limit tells only on which side of the number the result lay.

Here are results for 14 compounds from publication PMC8199291 (Molecules, 2021).

For `O=C(Oc1ccc([N+](=O)[O-])cc1)N1CCN(Cc2cccc(Oc3ccccc3)c2)CC1` [JZL-195, reference compound], at human FAAH (hFAAH) (setting [1]), the IC50 was determined as 0.04 ± 0.02 µM.

In the case of `CCN(CCO)C(=S)SSC(=S)N(CC)CCO` [2e], the IC50 was determined as 0.72 ± 0.2 µM on human MAGL (hMAGL) (setting [2]) and 25.4 ± 3.26 µM on human FAAH (hFAAH) (setting [3]).

On to `CCCCN(CCCC)C(=S)SSC(=S)N(CCCC)CCCC` [2c], for which the IC50 was 7.14 ± 0.21 µM on human MAGL (hMAGL) (setting [2]) and above 100 µM against human FAAH (hFAAH) (setting [1]). Besides, the “decrease of MAGL inhibitory activity” value at human MAGL (hMAGL) is “up to 15 fold”. In addition, the “FAAH inhibitory activity (in words)” value at human FAAH (hFAAH) is reported as “no inhibition”.

On to `S=C(SSC(=S)N(Cc1ccccc1)Cc1ccccc1)N(Cc1ccccc1)Cc1ccccc1` [2m], for which the IC50 at human MAGL (hMAGL) was 3.58 ± 0.95 µM; at human FAAH (hFAAH) (setting [1]) it was above 100 µM. The “FAAH inhibitory activity (in words)” value on human FAAH (hFAAH) is on record as “complete loss of FAAH inhibitory activity”.

In the case of `CC(C)CN(CC(C)C)C(=S)SSC(=S)N(CC(C)C)CC(C)C` [2d], at human MAGL (hMAGL) (absence vs presence of dithiothreitol 10 mM), the “hydrolytic activity of MAGL inhibited by the compound upon addition of dithiothreitol (reversibility of inhibition)” value is listed as “restored”. Besides, the IC50 at human MAGL (hMAGL) (setting [2]) is 13.4 ± 4.79 µM; against human FAAH (hFAAH) (setting [1]), above 100 µM. The “decrease of MAGL inhibitory activity” value on human MAGL (hMAGL) was “up to 15 fold”. Further, the “FAAH inhibitory activity (in words)” value on human FAAH (hFAAH) is given as “no inhibition”.

As to `CCN(Cc1ccc(F)cc1)C(=S)SSC(=S)N(CC)Cc1ccc(F)cc1` [2i], on human MAGL (hMAGL), the “MAGL inhibitory activity (in words)” value is given as “low micromolar range”. Also, the IC50 at human MAGL (hMAGL) (setting [2]) is 3.58 ± 1.54 µM; against human FAAH (hFAAH) (setting [1]) it was above 100 µM. Moreover, the “FAAH inhibitory activity (in words)” value on human FAAH (hFAAH) is “devoid of anti-FAAH activity; also recorded: did not show any inhibitory activity”.

As for `CCN(CCC(=O)O)C(=S)SSC(=S)N(CC)CCC(=O)O` [2f], the IC50 on human MAGL (hMAGL) (setting [2]) came out at 0.87 ± 0.21 µM; on human FAAH (hFAAH) (setting [3]) it was 12.8 ± 1.57 µM.

In the case of `CCN(Cc1ccccc1)C(=S)SSC(=S)N(CC)Cc1ccccc1` [2h], the IC50 on human MAGL (hMAGL) (setting [2]) was 5.53 ± 2.62 µM; against human FAAH (hFAAH) (setting [1]), above 100 µM. The “FAAH inhibitory activity (in words)” value at human FAAH (hFAAH) was “devoid of anti-FAAH activity”.

As for `CCN(Cc1ccc(O)cc1)C(=S)SSC(=S)N(CC)Cc1ccc(O)cc1` [2j], the IC50 is 3.71 ± 1.28 µM at human MAGL (hMAGL) (setting [2]) and 38.3 ± 7.96 µM at human FAAH (hFAAH) (setting [3]).

For the compound `CCN(CC)C(=S)SSC(=S)N(CC)CC` [2a, Disulfiram, reference compound], the IC50 on human MAGL (hMAGL) (setting [2]) is 0.95 ± 0.26 µM; on human FAAH (hFAAH) (setting [3]), 36 µM and 36.2 µM.

Take `CCN(Cc1ccc(C(=O)O)cc1)C(=S)SSC(=S)N(CC)Cc1ccc(C(=O)O)cc1` [2k]: the IC50 on human MAGL (hMAGL) (setting [2]) was 22.6 ± 16.8 µM; against human FAAH (hFAAH) (setting [1]) it was above 100 µM. Besides, on human FAAH (hFAAH), the “FAAH inhibitory activity (in words)” value was “devoid of anti-FAAH activity”.

For `CCOC(=O)CCN(CC)C(=S)SSC(=S)N(CC)CCC(=O)OCC` [2g, Bis(N-ethoxycarbonylethylethylthiocarbamoyl)disulphide], at human MAGL (hMAGL), the “MAGL inhibitory activity (in words)” value was “low micromolar range”. Further, the IC50 was 3.53 ± 1.32 µM on human MAGL (hMAGL) (setting [2]) and 10 ± 0.68 µM at human FAAH (hFAAH) (setting [3]).

Regarding `CC(C)N(C(=S)SSC(=S)N(C(C)C)C(C)C)C(C)C` [2b], the figures for the IC50 at human MAGL (hMAGL) (setting [2]) and at human FAAH (hFAAH) (setting [1]) were 1.89 ± 0.37 µM and above 100 µM, respectively.

As for `CCOC(=O)c1ccc(CN(CC)C(=S)SSC(=S)N(CC)Cc2ccc(C(=O)OCC)cc2)cc1` [2l, Bis(N-4-ethoxycarbonylbenzylethylthiocarbamoyl)disulphide], the IC50 was 5.03 ± 2.35 µM at human MAGL (hMAGL) (setting [2]) and above 100 µM at human FAAH (hFAAH) (setting [1]). Further, on human FAAH (hFAAH), the “FAAH inhibitory activity (in words)” value is recorded as “devoid of anti-FAAH activity”.
